Laboratory results taken from DBAASP.
Converted amounts (≈) assume the structure as drawn. “And” between values parts separate entries of the source, which are not always exact repeats. Identical values can stand only once. Blank lines part the entries; values can stand above or below the compound they belong to.

Tests used:
Assay in all cases: ≥ marks a high value that may be exact or a test limit, other limits are often not marked, values filed in µg/mL are converted to µM
Raoultella terrigena = system: Raoultella terrigena
Acinetobacter baumannii = system: Acinetobacter baumannii
Pseudomonas aeruginosa = system: Pseudomonas aeruginosa
Enterococcus gallinarum = system: Enterococcus gallinarum
Enterococcus faecalis = system: Enterococcus faecalis
Candida glabrata 0902 = system: Candida glabrata 0902
Klebsiella pneumoniae = system: Klebsiella pneumoniae
Escherichia coli 1342 = system: Escherichia coli 1342
[1] = system: Enterococcus faecium 1299
[2] = system: Candida albicans ATCC 2002
[3] = system: Staphylococcus aureus 090223
Aeromonas sobria 090223 = system: Aeromonas sobria 090223
[4] = system: Stenotrophomonas maltophilia 090223
[5] = system: Nocardia asteroides 090312
[6] = system: Staphylococcus aureus ATCC 2592
[7] = system: Escherichia coli ATCC 25922
Proteus mirabilis 090223 = system: Proteus mirabilis 090223
[8] = system: Staphylococcus aureus 1349
[9] = system: Serratia marcescens KCTC 1299
[10] = system: Pseudomonas aeruginosa KCTC 1637
[11] = system: Candida albicans KCTC 7121
[12] = system: Fusarium oxysporum KCTC 6084
[13] = system: Salmonella typhimurium KCTC 1926
[14] = system: Staphylococcus aureus KCTC 1621
[15] = system: Aspergillus flavus KCTC 7375
[16] = system: Escherichia coli KCTC 1682
[17] = system: Streptococcus pyogenes KCTC 3096
[18] = system: Trichosporon beigelii KCTC 7251
[19] = system: Bacillus subtilis KCTC 3068
[20] = system: Bacillus subtilis ATCC 9372
[21] = system: Escherichia coli ATCC 8739
[22] = system: Staphylococcus aureus ATCC 6538
[23] = system: Pseudomonas aeruginosa ATCC 9027
[24] = system: Proteus vulgaris NCTC 4635
Candida albicans M9 = system: Candida albicans M9
[25] = system: Salmonella enterica serovar Minnesota R595
[26] = system: Staphylococcus aureus 209P
Escherichia coli K-12 = system: Escherichia coli K-12
[27] = system: Salmonella enterica subsp. enterica serovar Typhimurium LT2
Escherichia coli DC2 = system: Escherichia coli DC2
[28] = system: Staphylococcus aureus ATCC 25923
[29] = system: Salmonella typhimurium 1102
[30] = system: Salmonella enterica serovar Minnesota 1114W
Staphylococcus aureus = system: Staphylococcus aureus
Escherichia coli = system: Escherichia coli
Bacillus cereus = system: Bacillus cereus
Bacillus anthracis = system: Bacillus anthracis

Structure (SMILES): CSCC[C@H](NC(=O)[C@H](C)NC(C)=O)C(=O)N[C@H](C(=O)N[C@@H](CO)C(=O)N[C@@H](CO)C(=O)O)C(C)C [AMVSS]
MIC (Raoultella terrigena): 23.1 µM (≈ 12.4 µg/mL) | MIC (Acinetobacter baumannii): 23.1 µM (≈ 12.4 µg/mL) | MIC (Pseudomonas aeruginosa): 23.1 µM (≈ 12.4 µg/mL) | MIC (Enterococcus gallinarum): 23.1 µM (≈ 12.4 µg/mL) | MIC (Enterococcus faecalis): ≥ 46.2 µM

Structure (SMILES): CC[C@H](C)[C@H](NC(=O)[C@@H]1CCCN1C(=O)[C@H](CCCCN)NC(=O)[C@H](Cc1ccccc1)NC(=O)[C@H](CC(C)C)NC(=O)[C@H](Cc1cnc[nH]1)NC(=O)[C@H](CC(C)C)NC(=O)[C@H](C)NC(=O)[C@H](CCCCN)NC(=O)[C@H](CCCCN)NC(=O)[C@@H](N)Cc1ccccc1)C(=O)N[C@@H](CCCCN)C(=O)N[C@@H](CCCCN)C(=O)N[C@@H](Cc1ccccc1)C(=O)N[C@@H](CC(C)C)C(=O)N[C@@H](CCCCN)C(=O)N[C@@H](Cc1c[nH]c2ccccc12)C(=O)N[C@@H](CCCCN)C(N)=O [FKKALHLFKPIKKFLKWK]
MIC [9]: 6.25 µM (≈ 14.4 µg/mL) | MIC [10]: 1.56 µM (≈ 3.59 µg/mL) | MIC [11]: ≥ 50 µM | MIC [12]: ≥ 50 µM | MIC [13]: 3.13 µM (≈ 7.2 µg/mL) | MIC [14]: 1.56 µM (≈ 3.59 µg/mL) | MIC [15]: ≥ 50 µM | MIC [16]: 6.25 µM (≈ 14.4 µg/mL) | MIC [17]: 6.25 µM (≈ 14.4 µg/mL) | MIC [18]: 25 µM (≈ 57.5 µg/mL) | MIC [19]: 0.78 µM (≈ 1.79 µg/mL)

Structure (SMILES): CC[C@H](C)[C@H](NC(=O)[C@H](Cc1cnc[nH]1)NC(=O)[C@@H](N)[C@@H](C)O)C(=O)N[C@@H](Cc1cnc[nH]1)C(=O)N[C@@H](CCSC)C(=O)N[C@@H](CC(N)=O)C(=O)N[C@@H](C)C(=O)N[C@@H](CCCN=C(N)N)C(=O)N[C@@H](CC(C)C)C(=O)N[C@@H](CC(C)C)C(=O)N[C@H](C(=O)N[C@@H](CCCN=C(N)N)C(=O)N[C@@H](CO)C(=O)N1CCC[C@H]1C(=O)N[C@@H](Cc1ccccc1)C(=O)N[C@H](C(=O)N[C@@H](CC(=O)O)C(=O)N1CCC[C@H]1C(=O)N[C@@H](CCC(N)=O)C(=O)N[C@@H](CC(C)C)C(=O)O)[C@@H](C)O)[C@@H](C)CC [THIHMNARLLIRSPFTDPQL]
MIC (Staphylococcus aureus): > 108 µM | MIC (Escherichia coli): > 108 µM | MIC (Bacillus cereus): ≥ 108 µM | MIC (Bacillus anthracis): ≥ 108 µM

Second part, the compound after the results:

MIC (Candida glabrata 0902): ≥ 32.9 µM | MIC (Klebsiella pneumoniae): 32.9 µM (≈ 74.9 µg/mL) | MIC (Escherichia coli 1342): 4.12 µM (≈ 9.39 µg/mL) | MIC [1]: 2.06 µM (≈ 4.7 µg/mL) | MIC [2]: 1.01 µM (≈ 2.3 µg/mL) | MIC (Acinetobacter baumannii): 8.25 µM (≈ 18.8 µg/mL) | MIC [3]: 2.06 µM (≈ 4.7 µg/mL) | MIC (Aeromonas sobria 090223): 8.25 µM (≈ 18.8 µg/mL) | MIC [4]: 4.12 µM (≈ 9.39 µg/mL) | MIC [5]: 8.25 µM (≈ 18.8 µg/mL) | MIC [6]: 8.25 µM (≈ 18.8 µg/mL) | MIC [7]: 32.9 µM (≈ 74.9 µg/mL) | MIC (Proteus mirabilis 090223): 8.25 µM (≈ 18.8 µg/mL) | MIC [8]: 16.5 µM (≈ 37.5 µg/mL)
Structure (SMILES): CC[C@H](C)[C@@H]1NC(=O)[C@H](CCSC)NC(=O)[C@@H](NC(=O)[C@H](CC(C)C)NC(=O)[C@H](CC(C)C)NC(=O)[C@H](CO)NC(=O)[C@@H]2CCCN2C(=O)[C@H](CC(C)C)NC(=O)[C@H](CC(C)C)NC(=O)[C@H](CCCCN)NC(=O)[C@@H](NC(=O)[C@@H](NC(=O)[C@H](C)NC(=O)CNC(=O)[C@H](CC(C)C)NC(=O)[C@H](C)NC(=O)[C@@H](N)Cc2ccccc2)C(C)C)[C@@H](C)O)CSSC[C@@H](C(=O)O)NC(=O)[C@H](CCCCN)NC(=O)[C@H](CCCN=C(N)N)NC(=O)[C@H]([C@@H](C)O)NC1=O [FALGAVTKLLPSLLCMITRKC]

MIC [20]: 5.71 µM (≈ 8 µg/mL) | MIC [21]: ≥ 45.7 µM | MIC [22]: 22.8 µM (≈ 32 µg/mL) | MIC [23]: 183 µM (≈ 256 µg/mL) | MIC [24]: ≥ 183 µM
Structure (SMILES): CC[C@H](C)[C@H](NC(=O)[C@@H](NC(=O)[C@H](CO)NC(=O)[C@H](C)NC(=O)[C@@H](NC(=O)[C@H](CCCCN)NC(=O)[C@H](CCCCN)NC(=O)[C@@H](NC(=O)[C@@H](NC(=O)[C@H](C)NC(=O)[C@H](Cc1ccccc1)NC(=O)[C@H](CC(C)C)NC(=O)CN)C(C)C)[C@@H](C)CC)C(C)C)C(C)C)C(=O)NCC(=O)O [GLFAVIKKVASVIG]

MIC (Candida albicans M9): 1.37 µM (≈ 3.09 µg/mL) | MIC [25]: 0.705 µM (≈ 1.6 µg/mL) | MIC [26]: 2.78 µM (≈ 6.29 µg/mL) | MIC (Escherichia coli K-12): 0.982 µM (≈ 2.22 µg/mL) | MIC [22]: 5.66 µM (≈ 12.8 µg/mL) | MIC [27]: 0.982 µM (≈ 2.22 µg/mL) | MIC (Escherichia coli DC2): 0.707 µM (≈ 1.6 µg/mL) | MIC [7]: 0.25 µM (≈ 0.566 µg/mL) | MIC [28]: 5.51 µM and 2 µM | MIC [29]: 0.982 µM (≈ 2.22 µg/mL) | MIC [30]: 2.78 µM (≈ 6.29 µg/mL)
Structure (SMILES): CC[C@H](C)[C@@H]1NC(=O)CNC(=O)[C@H](CCCN=C(N)N)NC(=O)[C@H](Cc2ccc(O)cc2)NC(=O)[C@@H]2CSSC[C@H](NC1=O)C(=O)N[C@@H](Cc1ccc(O)cc1)C(=O)N[C@@H](CCCN=C(N)N)C(=O)N[C@@H](CCCCN)C(=O)N[C@H](C(=O)N[C@@H](CCCN=C(N)N)C(N)=O)CSSC[C@H](NC(=O)[C@H](Cc1c[nH]c3ccccc13)NC(=O)[C@@H](N)CCCN=C(N)N)C(=O)N[C@@H](Cc1ccccc1)C(=O)N[C@@H](CCCN=C(N)N)C(=O)N[C@@H](C(C)C)C(=O)N2 [RWCFRVCYRGICYRKCR]
